Measured values as given in article PMC9653258, “NDUFS3 knockout cancer cells and molecular docking reveal specificity and mode of action of anti-cancer respiratory complex I inhibitors” (Open Biology, 2022).
Read-outs that look alike come from different tables or passages of the source. Each block holds one compound with its values, some of them ahead of it.

What was measured:
[1] = system: mitochondrial respiration of B16-F10 cells; assay: Microrespirometry (Seahorse XFe, oxygen consumption rate); assay type: cell-based, murine; conditions: for IC50: Mus musculus
Experimental: (§1) Mitochondrial respiration was measured using the protocol described for the Seahorse XFe Cell Mito Stress Test Kit (Agilent #103015-100) following the manufacturer instructions. Briefly, 12 × 10^3 cells/well (SKOV3, HCT116) and 8 × 10^3 (B16-F10) were seeded in 80 µl of DMEM medium into XFe96 cell culture plates and incubated for 48 h (HCT116) and for 24 h (SKOV3, B16-F10) at 37°C and 5% CO2. Complete growth medium was replaced with 180 µl of XF medium (Agilent #103575-100) supplemented with 10 mM glucose, 1 mM sodium pyruvate, 2 mM L-glutamine, at pH 7.4. For temperature and pH equilibration, cells were incubated at 37°C for 30 min. Three oxygen consumption rate (OCR) baseline measurements were followed by injection of either vehicle or different concentrations of CI-inhibitors and subsequent measurements; 1 µM oligomycin, carbonyl cyanide-p-trifluoromethoxyphenylhydrazone (FCCP), 1 µM rotenone and 1 µM antimycin A were sequentially added to each well. FCCP concentrations were previously optimized by titration and were 0.5 µM for SKOV3, 0.75 µM for HCT116 and 1 µM for B16-F10, respectively. At the end of the assay, medium was removed and sulforhodamine B (SRB) assay was performed to determine protein content for normalization. Briefly, plates were incubated with 10% trichloroacetic acid (TCA) for 1 h at 4°C to fix the cells. Five washes in water were carried out. Once the plates were dry, proteins were stained by incubation with 0.4% SRB for 30 min at RT. SRB was solubilized with 10 mM Tris and absorbance at 560 nm was determined using a Victor2 plate reader (Perkin-Elmer). Data (pmol min^−1) were normalized to blank corrected SRB absorbance.

[2] = system: NDUFS3^+/+ and NDUFS3^−/− SKOV3, HCT116 and B16-F10 cells; assay: Specificity assay: proliferation of NDUFS3^+/+ versus NDUFS3^−/− cells, Incucyte; assay type: cell-based, human, murine; conditions: EVP 4593 100 nM (SKOV3, HCT116), 200 nM (B16-F10); BAY 87-2243 1 µM, 20 µM (B16-F10); IACS-010759 1 µM, 5 µM (B16-F10); 72 h
Experimental: (§2) Cell proliferation and morphology were assessed using the Incucyte Live-imaging System (Sartorius) and proliferation was quantified through time-lapse image acquisition and metrics application.
(§3) Briefly, 2.5 × 10^3 SKOV3/well, 2 × 10^3 HCT116/well and 1 × 10^3 B16-F10/well were seeded in 96-well plates in high-glucose DMEM and incubated overnight to allow cells attachment. For specificity assays, NDUFS3 wild-type and knockout cells were seeded simultaneously, and the same confluence mask was applied for subsequent analysis. […] Cell growth was evaluated by Incucyte system phase contrast software (confluence metrics), which provides an occupied area average (% of confluence) per image/per well. For data in electronic supplementary material, figures S1 and S2, the analysis was performed using % of confluence metric per scan normalized on treatment starting point (time 0). For data in figures 1 and 2, the percentage of cell confluence normalized on time 0 for each inhibitor's treatment was subsequently normalized to untreated control. At least three replicate experiments were performed for each treatment condition.

[3] = system: SKOV3, HCT116 and B16-F10 cells; assay: Apoptotic cell death, Incucyte Caspase-3/7 green dye (all cell models); assay type: cell-based, human, murine; conditions: 72 h
Experimental: (§7) Cells (SKOV3, HCT116 and B16-F10) were seeded in a 96-wells plate in high glucose DMEM, as described above. Drugs were added after 24 h, in presence of 5 µM Incucyte Caspase-3/7 green dye following the manufacturer's protocol. Then, the plate was placed in Incucyte for 72 h and images (4/well) were captured at 10× magnification with 2 h intervals, both in phase contrast and fluorescent green channel. For each cell line, staurosporine (100 nM, Sigma-Aldrich #S4400) treatment was performed as a positive control. For each experimental condition, the masks for fluorescent objects identification were set by the Incucyte integrated analysis software. Total and green positive cells were counted at 10× magnification in three fields of view per condition, and data are expressed as percentage of apoptotic cells [(number of green cells/number of total cells) × 100].

[4] = system: NDUFS3^−/− cells (SKOV3^−/−, HCT116^−/−, B16-F10^−/−); assay: Proliferation of CI-deficient cells, Incucyte (all three models); assay type: cell-based, human, murine; conditions: tested concentrations (up to 1 µM)
Description: (§4) Human ovarian cancer cell line SKOV3 and murine melanoma cell line B16-F10 were purchased from ATCC (#HTB-77; #CRL-6475, Manassas, VA, USA). Human colorectal cancer cell line HCT116 was authenticated using […]dentifiler kit (Applied Biosystem #4322288) and its STR profile corresponded to the putative background. Mitochondrial DNA (mtDNA) was sequenced by Sanger sequencing as previously described, to ensure wild-type genotype. The results are available upon request. NDUFS3 knockout cells, referred as SKOV3^−/−, HCT116^−/− and B16-F10^−/−, were generated by genome editing as previously reported. Briefly, CRISPR/Cas9 system was used to introduce a frameshift mutation in NDUFS3 gene in SKOV3 human cell line and Ndufs3 gene in B16-F10 murine cell line, using exon 2 targeting guide […] and exon 3 targeting guide […], respectively. […]
as §2
(§5) Briefly, 2.5 × 10^3 SKOV3/well, 2 × 10^3 HCT116/well and 1 × 10^3 B16-F10/well were seeded in 96-well plates in high-glucose DMEM and incubated overnight to allow cells attachment. […] Cell growth was evaluated by Incucyte system phase contrast software (confluence metrics), which provides an occupied area average (% of confluence) per image/per well. […]

[5] = system: B16-F10 cells (NDUFS3^+/+); assay: Cell proliferation, Incucyte live-imaging (confluence); assay type: cell-based, murine
Experimental: as §2, §3

[6] = system: CI (respiratory complex I) in permeabilized SKOV3, HCT116 and B16-F10 cells; assay: Mitochondrial ATP synthesis rate, CI-driven, digitonin-permeabilized cells (luciferin/luciferase); assay type: cell-based, human, murine; conditions: optimized concentrations; all the investigated cell models
Experimental: The rate of mitochondrial ATP synthesis was measured in digitonin-permeabilized CI competent cells by using a luciferin/luciferase assay as previously described with minor modifications [47]. Chemiluminescence was determined as a function of time with a luminometer (Sirius L Tube, Titertek-Berthold, Pforzheim, Germany). After trypsinization, cells (10 × 10^6 ml^−1) were suspended in a buffer containing 150 mM KCl, 25 mM Tris–HCl, 2 mM EDTA (ethylenediaminetetraacetic acid), 0.1% bovine serum albumin, 10 mM potassium phosphate, 0.1 mM MgCl2, pH 7.4, kept at room temperature for 15 min, then incubated with 50 µg ml^−1 digitonin until 90–100% of cells were positive to Trypan Blue staining. Aliquots of 3 × 10^5 permeabilized cells were incubated in the same buffer in the presence of the adenylate kinase inhibitor P1,P5-di(adenosine-5′) pentaphosphate (0.1 mM, Sigma-Aldrich #A2754) and 10 µl of the luciferin/luciferase assay reagent (Sigma-Aldrich #FLAAM-5VL). Then, ATP synthesis rate was determined after the sequential addition of the following substrates and inhibitors. […] Then, CI inhibitors were added at the optimized concentrations that completely suppress maximal respiration previously determined by titration with Seahorse. […]

[7] = system: mitochondrial respiration of SKOV3, HCT116 and B16-F10 cells; assay: Microrespirometry (Seahorse XFe, OCR), stated across cell models; assay type: cell-based, human, murine
Experimental: as §1

[8] = system: mitochondrial respiration of SKOV3 cells; assay: Microrespirometry (Seahorse XFe, oxygen consumption rate); assay type: cell-based, human; conditions: for IC50: Homo sapiens, read-out: IC50 (residual OCR, concentration-response)
Experimental: as §1

[9] = system: mitochondrial respiration of HCT116 cells; assay: as above; assay type: cell-based, human; conditions: for IC50: Homo sapiens, read-out: IC50 (residual OCR, concentration-response)
Experimental: as §1

SKOV3 cells (NDUFS3^+/+) = assay: Cell proliferation, Incucyte live-imaging (confluence); assay type: cell-based, human
Experimental: as §2, §3

[10] = system: HCT116 cells (NDUFS3^+/+); assay: as above; assay type: cell-based, human
Experimental: as §2, §3

[11] = system: HCT116^−/− cells (NDUFS3 knockout); assay: Proliferation of CI-deficient cells, Incucyte; assay type: cell-based, human
Description: (§6) Human ovarian cancer cell line SKOV3 and murine melanoma cell line B16-F10 were purchased from ATCC (#HTB-77; #CRL-6475, Manassas, VA, USA). Human colorectal cancer cell line HCT116 was authenticated using […]dentifiler kit (Applied Biosystem #4322288) and its STR profile corresponded to the putative background. Mitochondrial DNA (mtDNA) was sequenced by Sanger sequencing as previously described, to ensure wild-type genotype. The results are available upon request. NDUFS3 knockout cells, referred as SKOV3^−/−, HCT116^−/− and B16-F10^−/−, were generated by genome editing as previously reported. Briefly, CRISPR/Cas9 system was used to introduce a frameshift mutation in NDUFS3 gene in SKOV3 human cell line and Ndufs3 gene in B16-F10 murine cell line, using exon 2 targeting guide […] and exon 3 targeting guide […], respectively. Instead, zinc finger endonuclease system was used to obtain HCT116 NDUFS3 knockout. Plasmids containing cDNA of NDUFS3-targeted zinc finger endonucleases (Sigma-Aldrich #CKOZFND15186) were purified and transcribed in vitro. The pool of zinc finger endonucleases mRNAs was transfected into 70% confluent HCT116 cells. The resulting heterozygous clones were subjected to a subsequent second transfection with NDUFS3 zinc finger pool and led to the selection of homozygous frameshift NDUFS3 mutants.
as §2, §3

[12] = system: SKOV3^−/− cells (NDUFS3 knockout); assay: Proliferation of CI-deficient cells, Incucyte; assay type: cell-based, human
Description: as §6, §2, §3

SKOV3 cells = assay: Apoptotic cell death, Incucyte Caspase-3/7 green dye; assay type: cell-based, human; conditions: 72 h
Experimental: as §7

[13] = system: B16-F10^−/− cells (NDUFS3 knockout); assay: Proliferation of CI-deficient cells, Incucyte; assay type: cell-based, murine
Description: as §4, §2, §5

HCT116 cells = assay: Apoptotic cell death, Incucyte Caspase-3/7 green dye; assay type: cell-based, human; conditions: 72 h
Experimental: as §7

[14] = B16-F10, figure 4a, read-out: IC50 (residual OCR, concentration-response)
[15] = 1 µM (highest concentration applied)
[16] = range over SKOV3, HCT116, B16-F10, read-out: IC50 of mitochondrial respiration (range over cell lines)
[17] = metformin, dose-dependent over the tested concentrations

IC50 [1, 14]: 7.04 µM
IC50 ([1]; murine B16-F10 cells, read-out: IC50 (mitochondrial respiration)): 7 µM
IC50 ([7]; human models (SKOV3, HCT116), read-out: IC50 (mitochondrial respiration)): 0.115 to 0.171 µM
IC50 [7, 16]: 0.12 to 7 µM
IC50 ([8]; SK-OV-3, figure 4a): 0.115 µM
IC50 ([9]; HCT-116, figure 4a): 0.172 µM
Compound: Cc1cc(-c2nc(-c3ccc(OC(F)(F)F)cc3)no2)nn1Cc1ccnc(N2CCN(C3CC3)CC2)c1 [BAY 87-2243, 1-cyclopropyl-4-(4-[(5-methyl-3-{3-[4-(trifluoromethoxy)phenyl]-1,2,4-oxadiazol-5-yl)-1H-pyrazol-1-yl)methyl]pyridin-2-yl) piperazine]
concentration required to suppress maximal OCR (abolished OCR) ([1]; B16-F10): 20 µM
fold less efficient in murine B16-F10 cells compared to human models ([1]; ratio of IC50, B16-F10 versus human models): 50 fold
effect on cell proliferation at optimized concentrations, NDUFS3^+/+ versus CI-defective counterparts [2]: reduced cell proliferation of NDUFS3^+/+ cells only
apoptosis (percentage of cells) ([3]; tested BAY 87-2243 concentrations): very low percentage of cells
effect on CI-deficient cancer cell growth [4]: unaffected
reduction of cell growth after 72 h treatment [5, 15]: 28%
effect on CI-driven ATP synthesis [6]: strongly inhibit
lowest concentration that completely inhibited mitochondrial respiration (abolished OCR) [8]: 1 µM
lowest concentration that completely inhibited mitochondrial respiration (abolished OCR) [9]: 1 µM
reduction of cell growth after 72 h treatment (SKOV3 cells (NDUFS3^+/+); [15]): 38%
reduction of cell growth after 72 h treatment [10, 15]: 20%

Compound: Nc1ccc2ncnc(NCCc3ccc(Oc4ccccc4)cc3)c2c1 [EVP 4593, N4-[2-(4-phenoxyphenyl)ethyl]-4,6-quinazolinediamine]
lowest concentration able to fully curb mitochondrial respiration ([1]; B16-F10): 200 nM
IC50 [1, 14]: 0.0299 µM
effect on cell proliferation at optimized concentrations, NDUFS3^+/+ versus CI-defective counterparts [2]: reduced cell proliferation of NDUFS3^+/+ cells only
apoptotic cell death ([3]; 2.5 µM): modest percentage of dead cells
massive apoptotic cell death ([3]; optimized concentration (100 nM SKOV3 and HCT116, 200 nM B16-F10)): not detected
concentration causing reduction of NDUFS3^−/− cell growth ([11]; HCT116 NDUFS3^−/−): 10 to 20 µM
concentration causing reduction of NDUFS3^−/− cell growth ([12]; SKOV3 NDUFS3^−/−): 20 µM
decrease in cell proliferation after 72 h ([5]; 2.5–20 µM): 66–84%
effect on CI-driven ATP synthesis [6]: strongly inhibit
apoptotic cell death (SKOV3 cells; 20 µM): 24.6%
concentration range completely suppressing mitochondrial respiration ([7]; in our models (SKOV3, HCT116, B16-F10)): 100 to 200 nM
IC50 [7, 16]: 0.011 to 0.03 µM
concentration causing reduction of NDUFS3^−/− cell growth ([13]; B16-F10 NDUFS3^−/−): 20 µM
lowest concentration able to fully curb mitochondrial respiration [8]: 100 nM
IC50 ([8]; SK-OV-3, figure 4a): 0.0111 µM
lowest concentration able to fully curb mitochondrial respiration [9]: 100 nM
IC50 ([9]; HCT-116, figure 4a): 0.013 µM
decrease in cell proliferation after 72 h (SKOV3 cells (NDUFS3^+/+); 2.5–20 µM): 49–62%
decrease in cell proliferation after 72 h ([10]; 2.5–20 µM): 52–74%
apoptotic cell death (HCT116 cells; 20 µM): 77.6%

Compound: Cc1nc(-c2nc(-c3ccc(OC(F)(F)F)cc3)no2)nn1Cc1cccc(N2CCC(S(C)(=O)=O)CC2)c1 [IACS-010759]
concentration required to suppress maximal OCR (abolished OCR) ([1]; B16-F10): 5 µM
effect on cell proliferation at optimized concentrations, NDUFS3^+/+ versus CI-defective counterparts [2]: reduced cell proliferation of NDUFS3^+/+ cells only
lowest concentration that completely inhibited mitochondrial respiration (abolished OCR) [8]: 1 µM
lowest concentration that completely inhibited mitochondrial respiration (abolished OCR) [9]: 1 µM

Compound: CN(C)C(=N)NC(=N)N.Cl [metformin, 1,1-dimethylbiguanide hydrochloride]
IC50 ([1]; B16-F10, pre-incubated 24 h before OCR measurement, figure 4a, read-out: IC50 (residual OCR, concentration-response)): 1340 µM
concentration abolishing basal OCR ([1]; pre-incubation for 24 h, B16-F10): 10 mM
concentrations at which NDUFS3^−/− cell growth was reduced (CI-independent antiproliferative effect) ([11]; metformin, HCT116^−/−): all the tested concentrations
concentrations at which NDUFS3^−/− cell growth was reduced (CI-independent antiproliferative effect) ([12]; metformin, SKOV3^−/−): all the tested concentrations
reduction of cell growth after 72 h [5, 17]: 24–62%
apoptotic cell death (portion of the cells) (SKOV3 cells; 2.5 mM): 2.8%
decrease of basal respiration (OCR) ([7]; acute injection, only at the highest concentration (50 mM), independently from the cell model): 25–35%
concentration abolishing maximal respiration ([7]; cells pre-incubated (24 h)): 50 mM
IC50 ([7]; range over SKOV3, HCT116, B16-F10, 24 h pre-incubation, read-out: IC50 of mitochondrial respiration (range over cell lines)): 225 to 1340 µM
concentrations at which NDUFS3^−/− cell proliferation was reduced (CI-independent antiproliferative effect) ([13]; metformin, B16-F10^−/−, only at high concentrations): 10 to 20 mM
IC50 ([8]; SK-OV-3, pre-incubated 24 h before OCR measurement, figure 4a): 554 µM
concentration abolishing basal OCR ([8]; pre-incubation for 24 h): 2 mM
IC50 ([9]; HCT-116, pre-incubated 24 h before OCR measurement, figure 4a): 225 µM
concentration abolishing basal OCR ([9]; pre-incubation for 24 h): 2 mM
reduction of cell growth after 72 h (SKOV3 cells (NDUFS3^+/+); [17]): 58–90%
reduction of cell growth after 72 h [10, 17]: 46–77%
apoptotic cell death (HCT116 cells; 2.5 mM): comparable to the untreated control
